Drawing on US8367687B2, “Pyrazole derivatives” (Novartis AG, priority 2007, dated 2013), this text covers IC50 for 52 compounds.

What all share (format): biochemical
One experiment has as its target hCDK1/B (Homo sapiens, UniProt P06493). The experiment is described as follows: hCDK1/B. The following applies: Table 1.
The target in a further experiment is CDK4 (Homo sapiens, UniProt P11802). Nature of the experiment: CDK4 HTRF. Particulars: Table 1; read-out: CDK4 HTRF. On the technique in general: TR-FRET usually uses a lanthanide donor and a delayed reading to cut background.
Chain of CDK4 (P11802 whole entry): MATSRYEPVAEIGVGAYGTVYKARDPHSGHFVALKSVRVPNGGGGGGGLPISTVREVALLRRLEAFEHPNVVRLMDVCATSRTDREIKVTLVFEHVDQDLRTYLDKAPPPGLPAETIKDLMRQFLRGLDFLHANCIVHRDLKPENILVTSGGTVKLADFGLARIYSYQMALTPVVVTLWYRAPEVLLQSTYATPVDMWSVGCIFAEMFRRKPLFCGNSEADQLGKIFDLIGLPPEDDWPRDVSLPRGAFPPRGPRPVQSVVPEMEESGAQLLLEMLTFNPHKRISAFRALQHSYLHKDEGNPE
Chain of CDK4 (P24385 whole entry partner): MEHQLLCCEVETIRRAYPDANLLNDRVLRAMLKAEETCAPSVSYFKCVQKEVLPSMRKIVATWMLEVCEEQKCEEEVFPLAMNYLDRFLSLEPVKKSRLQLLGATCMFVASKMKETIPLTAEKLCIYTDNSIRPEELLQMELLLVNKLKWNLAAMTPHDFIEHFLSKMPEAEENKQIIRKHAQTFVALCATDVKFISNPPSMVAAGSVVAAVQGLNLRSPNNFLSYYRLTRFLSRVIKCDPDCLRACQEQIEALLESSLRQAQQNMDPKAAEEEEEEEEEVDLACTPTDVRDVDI
For another experiment, the target named is CDK2 cyA (Homo sapiens, UniProt P24941). Nature of the experiment: CDK2 cyA IMAP. Particulars: Table 1; read-out: CDK2 cyA IMAP.

Some results are limits rather than exact numbers.

Chain of hCDK1/B (P06493 whole entry): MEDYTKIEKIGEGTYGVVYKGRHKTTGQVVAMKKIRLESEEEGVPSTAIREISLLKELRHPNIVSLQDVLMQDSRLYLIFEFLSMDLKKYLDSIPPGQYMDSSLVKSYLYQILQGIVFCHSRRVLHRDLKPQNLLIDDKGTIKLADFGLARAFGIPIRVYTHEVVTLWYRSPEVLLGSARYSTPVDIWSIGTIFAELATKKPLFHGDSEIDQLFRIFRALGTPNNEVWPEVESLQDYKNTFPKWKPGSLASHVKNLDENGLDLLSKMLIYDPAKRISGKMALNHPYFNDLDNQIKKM
Chain of hCDK1/B (P14635 whole entry partner): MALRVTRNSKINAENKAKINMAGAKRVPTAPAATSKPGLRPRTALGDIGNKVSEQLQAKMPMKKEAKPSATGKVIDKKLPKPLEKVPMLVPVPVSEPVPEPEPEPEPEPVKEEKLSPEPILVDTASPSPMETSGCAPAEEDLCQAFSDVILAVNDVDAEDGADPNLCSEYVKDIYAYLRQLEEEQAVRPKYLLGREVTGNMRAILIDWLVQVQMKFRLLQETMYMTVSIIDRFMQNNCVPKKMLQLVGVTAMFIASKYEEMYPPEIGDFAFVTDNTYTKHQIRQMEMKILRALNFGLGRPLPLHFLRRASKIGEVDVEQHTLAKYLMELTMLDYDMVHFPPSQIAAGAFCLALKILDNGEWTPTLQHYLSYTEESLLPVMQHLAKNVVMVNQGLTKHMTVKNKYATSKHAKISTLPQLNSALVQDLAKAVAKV

Consider `c1cc(-c2cn[nH]c2C2CCCC2)cc(NC2CCCC2)n1` [Example 3], for which the values for the IC50 on hCDK1/B, on CDK4 and on CDK2 cyA were below 1 µM, below 0.5 µM and below 0.5 µM, respectively.

As to `CC(C)c1[nH]ncc1-c1ccnc(NCc2ccccc2)c1` [Example 4], the IC50 is below 5 µM against hCDK1/B, below 1 µM at CDK4 and below 5 µM on CDK2 cyA.

With `COCCNc1cc(-c2cn[nH]c2C(C)C)ccn1` [Example 5], the IC50 against hCDK1/B is below 10 µM; on CDK4, below 5 µM; at CDK2 cyA, below 10 µM.

For the compound `CC(C)c1[nH]ncc1-c1ccnc(NCC2CCCCC2)c1` [Example 6], the IC50 against hCDK1/B, on CDK4 and on CDK2 cyA was below 5 µM throughout.

For `CC(C)c1[nH]ncc1-c1ccnc(NC2CCCCC2)c1` [Example 7], the IC50 at hCDK1/B was below 1 µM; at CDK4, below 0.5 µM; on CDK2 cyA, below 0.5 µM.

For the compound `CC(C)c1[nH]ncc1-c1ccnc(NCC2CC2)c1` [Example 8], the IC50 was below 5 µM against hCDK1/B, below 0.5 µM at CDK4 and below 5 µM on CDK2 cyA.

On to `CC(C)CNc1cc(-c2cn[nH]c2C(C)C)ccn1` [Example 9], for which the IC50 against hCDK1/B, at CDK4 and at CDK2 cyA was below 0.5 µM each time.

For `CCCCNc1cc(-c2cn[nH]c2C(C)C)ccn1` [Example 10], the IC50 against hCDK1/B was below 5 µM; on CDK4 it was below 0.5 µM; on CDK2 cyA, below 5 µM.

`COCCCNc1cc(-c2cn[nH]c2C(C)C)ccn1` [Example 11]: the results for the IC50 on hCDK1/B, at CDK4 and at CDK2 cyA were below 5 µM, below 1 µM and below 5 µM, respectively.

As to `CC(C)CCNc1cc(-c2cn[nH]c2C(C)C)ccn1` [Example 12], the IC50 against hCDK1/B is below 5 µM; on CDK4, below 1 µM; at CDK2 cyA it was below 5 µM.

As for `CC(C)c1[nH]ncc1-c1ccnc(NCC2CCCO2)c1` (stereo not drawn) [Example 13], the IC50 was below 5 µM on hCDK1/B, below 5 µM on CDK4 and below 10 µM on CDK2 cyA.

With `Cc1ccccc1CNc1cc(-c2cn[nH]c2C(C)C)ccn1` [Example 14, [4-(5-Isopropyl-1H-pyrazol-4-yl)-pyridin-2-yl]-(2-methyl-benzyl)-amine], the IC50 against hCDK1/B was below 5 µM; on CDK4 it was below 0.1 µM; at CDK2 cyA, below 5 µM.

With `CC(C)c1[nH]ncc1-c1ccnc(NCCc2cccnc2)c1` [Example 15], the IC50 against hCDK1/B was below 5 µM; on CDK4, below 0.5 µM; at CDK2 cyA, below 5 µM.

Take `CC(C)c1[nH]ncc1-c1ccnc(NCCCCN(C)C)c1` [Example 18]: the IC50 was at least 15 µM at hCDK1/B, below 5 µM on CDK4 and at least 15 µM at CDK2 cyA.

`CC(C)c1[nH]ncc1-c1ccnc(NCCCN2CCCC2)c1` [Example 19]: the IC50 is at least 15 µM on hCDK1/B, below 10 µM at CDK4 and at least 15 µM at CDK2 cyA.

Turning to `CC(C)c1[nH]ncc1-c1ccnc(NCC2CCCCCC2)c1` [Example 20], the IC50 against hCDK1/B, at CDK4 and at CDK2 cyA was below 5 µM each time.

As to `CC(C)c1[nH]ncc1-c1ccnc(NCCCO)c1` [Example 23], the IC50 on hCDK1/B, on CDK4 and on CDK2 cyA was below 5 µM in each case.

Consider `CC(C)c1[nH]ncc1-c1ccnc(NCc2ccco2)c1` [Example 24], for which the IC50 against hCDK1/B was below 5 µM; on CDK4 it was below 1 µM; on CDK2 cyA it was below 5 µM.

With `CCC(C)Nc1cc(-c2cn[nH]c2C(C)C)ccn1` (stereo not drawn) [Example 26], the values for the IC50 against hCDK1/B, at CDK4 and at CDK2 cyA were below 5 µM, below 0.5 µM and below 1 µM, respectively.

With `CC(C)c1[nH]ncc1-c1ccnc(NC(C)c2ccccc2)c1` (stereo not drawn) [Example 27], the IC50 is below 5 µM against hCDK1/B, below 1 µM at CDK4 and below 5 µM on CDK2 cyA.

Take `Cc1ccc(CNc2cc(-c3cn[nH]c3C(C)C)ccn2)cc1` [Example 28]: the IC50 against hCDK1/B, at CDK4 and on CDK2 cyA was below 5 µM in each case.

For the compound `CC(C)c1[nH]ncc1-c1ccnc(NCCc2ccccn2)c1` [Example 29], the IC50 is below 10 µM at hCDK1/B, below 1 µM on CDK4 and below 5 µM at CDK2 cyA.

As for `CC(C)c1[nH]ncc1-c1ccnc(NCc2ccc(F)cc2)c1` [Example 30], the IC50 on hCDK1/B, on CDK4 and on CDK2 cyA was below 5 µM in each case.

In the case of `CC(C)c1[nH]ncc1-c1ccnc(NCCCCN2CCCC2)c1` [Example 33], the IC50 on hCDK1/B was at least 15 µM; on CDK4 it was below 5 µM; on CDK2 cyA it was at least 15 µM.

As for `COc1ccc(CNc2cc(-c3cn[nH]c3C(C)C)ccn2)cc1` [Example 34], the IC50 against hCDK1/B, on CDK4 and at CDK2 cyA was below 5 µM in each case.

Regarding `CC(C)c1[nH]ncc1-c1ccnc(NCCc2ccccc2)c1` [Example 37], the results for the IC50 against hCDK1/B, on CDK4 and at CDK2 cyA were below 5 µM, below 0.5 µM and below 1 µM, respectively.

As for `CC(C)c1[nH]ncc1-c1ccnc(NCc2cc(F)cc(F)c2)c1` [Example 38], the IC50 was below 5 µM on hCDK1/B, below 1 µM at CDK4 and below 5 µM at CDK2 cyA.

Consider `CC(C)c1[nH]ncc1-c1ccnc(NC2CC2)c1` [Example 39], for which the IC50 was below 5 µM against hCDK1/B, below 0.5 µM on CDK4 and below 1 µM on CDK2 cyA.

With `CC(C)c1[nH]ncc1-c1ccnc(NC2CCCCCC2)c1` [Example 40], the IC50 was below 1 µM against hCDK1/B, below 0.5 µM on CDK4 and below 0.5 µM at CDK2 cyA.

In the case of `CC(C)c1[nH]ncc1-c1ccnc(NCCCn2ccnc2)c1` [Example 41], the IC50 against hCDK1/B was below 0.5 µM; at CDK4, below 5 µM; at CDK2 cyA it was below 1 µM.

For the compound `CC(C)c1[nH]ncc1-c1ccnc(NC2CCc3ccccc32)c1` (stereo not drawn) [Example 43], the figures for the IC50 against hCDK1/B, on CDK4 and on CDK2 cyA were below 5 µM, below 0.5 µM and below 5 µM, respectively.

Turning to `CCCNc1cc(-c2cn[nH]c2C(C)C)ccn1` [Example 44], the IC50 against hCDK1/B was below 5 µM; on CDK4, below 0.5 µM; at CDK2 cyA, below 5 µM.

For the compound `CC(C)c1[nH]ncc1-c1ccnc(NC2CCN(Cc3ccccc3)CC2)c1` [Example 45], the IC50 is below 15 µM against hCDK1/B, below 0.5 µM at CDK4 and at least 15 µM at CDK2 cyA.

`CC(C)c1[nH]ncc1-c1ccnc(NC(CO)C(C)C)c1` (stereo not drawn) [Example 46]: the IC50 at hCDK1/B is below 10 µM; on CDK4, below 0.5 µM; at CDK2 cyA, below 15 µM.

On to `Cc1cccc(CNc2cc(-c3cn[nH]c3C(C)C)ccn2)c1` [Example 49], for which the IC50 on hCDK1/B, on CDK4 and on CDK2 cyA was below 5 µM each time.

On to `CC(C)c1[nH]ncc1-c1ccnc(NCc2ccccc2C(F)(F)F)c1` [Example 50], for which the IC50 against hCDK1/B was below 5 µM; at CDK4, below 1 µM; at CDK2 cyA, below 5 µM.

On to `c1cc(-c2cn[nH]c2C2CCCC2)cc(NC2CCC2)n1` [Example 52], for which the figures for the IC50 against hCDK1/B, on CDK4 and at CDK2 cyA were below 5 µM, below 0.5 µM and below 0.5 µM, respectively.

With `c1cc(-c2cn[nH]c2C2CCCC2)cc(NC2CC2)n1` [Example 53], the IC50 was below 5 µM on hCDK1/B, below 0.5 µM on CDK4 and below 1 µM at CDK2 cyA.

For the compound `c1cc(-c2cn[nH]c2C2CCCC2)cc(NC2CCCCC2)n1` [Example 54], the IC50 against hCDK1/B is below 5 µM; on CDK4, below 0.5 µM; at CDK2 cyA, below 1 µM.

Regarding `c1cc(-c2cn[nH]c2C2CCCC2)cc(NC2CCCCCC2)n1` [Example 55], the IC50 at hCDK1/B was below 5 µM; on CDK4, below 0.5 µM; on CDK2 cyA it was below 1 µM.

For `CC(C)CNc1cc(-c2cn[nH]c2C2CCCC2)ccn1` [Example 56], the IC50 was below 5 µM on hCDK1/B, below 0.5 µM on CDK4 and below 1 µM on CDK2 cyA.

`c1cc(-c2cn[nH]c2C2CCCC2)cc(NCC2CC2)n1` [Example 57]: the IC50 is below 5 µM at hCDK1/B, below 1 µM at CDK4 and below 5 µM on CDK2 cyA.

For `c1ccc(CCNc2cc(-c3cn[nH]c3C3CCCC3)ccn2)cc1` [Example 58], the results for the IC50 on hCDK1/B, at CDK4 and at CDK2 cyA were below 5 µM, below 0.5 µM and below 5 µM, respectively.

With `c1cncc(CCNc2cc(-c3cn[nH]c3C3CCCC3)ccn2)c1` [Example 59], the IC50 against hCDK1/B is below 5 µM; at CDK4, below 0.5 µM; on CDK2 cyA it was below 5 µM.

On to `Cc1ccccc1CNc1cc(-c2cn[nH]c2C2CCCC2)ccn1` [Example 60], for which the IC50 is below 5 µM against hCDK1/B, below 0.5 µM at CDK4 and below 5 µM at CDK2 cyA.

As for `Cc1cccc(CNc2cc(-c3cn[nH]c3C3CCCC3)ccn2)c1` [Example 62], the IC50 at hCDK1/B, at CDK4 and at CDK2 cyA was below 5 µM in each case.

As for `FC(F)(F)c1ccccc1CNc1cc(-c2cn[nH]c2C2CCCC2)ccn1` [Example 63], the IC50 against hCDK1/B is below 5 µM; on CDK4, below 10 µM; on CDK2 cyA, below 5 µM.

Consider `c1ccc2c(c1)CC(Nc1cc(-c3cn[nH]c3C3CCCCCC3)ccn1)C2` [Example 67], for which the IC50 against hCDK1/B was below 5 µM; at CDK4, below 5 µM; at CDK2 cyA, below 1 µM.

For the compound `Cc1ccccc1CNc1cc(-c2cn[nH]c2C2CC2)ccn1` [Example 68], the IC50 on hCDK1/B is below 5 µM; at CDK4, below 0.1 µM; on CDK2 cyA it was below 5 µM.

As for `c1ccc2c(c1)CC(Nc1cc(-c3cn[nH]c3C3CC3)ccn1)C2` [Example 69], the IC50 on hCDK1/B was below 1 µM; on CDK4 it was below 0.1 µM; on CDK2 cyA, below 1 µM.

In the case of `c1ccc2c(c1)CCC2Nc1cc(-c2cn[nH]c2C2CC2)ccn1` (stereo not drawn) [Example 70], the results for the IC50 against hCDK1/B, on CDK4 and at CDK2 cyA were below 5 µM, below 0.5 µM and below 5 µM, respectively.

As for `CCC(CC)c1[nH]ncc1-c1ccnc(NCc2ccccc2C)c1` [Example 71], the IC50 at hCDK1/B is below 5 µM; at CDK4, below 0.5 µM; on CDK2 cyA, below 5 µM.
